Experimental data published in US20250302775A1, “METHODS FOR THE TREATMENT OF DEPRESSION” (Autobahn Therapeutics, Inc., priority 2022, published 2025).

What was measured:
FAAH = target: T1, FAAH (Mus musculus, UniProt O08914); test: tissue distribution in mice after co-dosing ABX-002 with or without PFI or GFI; type: in vivo; conditions: for Distribution: peripheral or global FAAH inhibitor
T1 construct: from tissue; host or cells: living mice (plasma, liver, brain)
T1 sequence (O08914 1-579): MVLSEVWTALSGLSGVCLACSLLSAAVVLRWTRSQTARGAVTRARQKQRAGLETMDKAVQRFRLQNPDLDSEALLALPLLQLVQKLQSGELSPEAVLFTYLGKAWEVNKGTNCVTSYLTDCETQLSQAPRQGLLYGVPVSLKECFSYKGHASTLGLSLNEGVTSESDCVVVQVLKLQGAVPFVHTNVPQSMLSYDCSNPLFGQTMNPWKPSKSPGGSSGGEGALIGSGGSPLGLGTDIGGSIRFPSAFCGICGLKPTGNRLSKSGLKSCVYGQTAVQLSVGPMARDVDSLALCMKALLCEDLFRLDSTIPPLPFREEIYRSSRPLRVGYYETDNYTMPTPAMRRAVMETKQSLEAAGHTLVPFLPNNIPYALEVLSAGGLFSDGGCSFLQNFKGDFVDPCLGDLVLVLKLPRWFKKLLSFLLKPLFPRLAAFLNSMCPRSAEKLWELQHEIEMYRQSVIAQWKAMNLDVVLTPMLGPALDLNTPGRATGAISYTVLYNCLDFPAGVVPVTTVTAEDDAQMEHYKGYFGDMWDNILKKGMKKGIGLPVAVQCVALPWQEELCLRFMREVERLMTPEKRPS
Procedure: The ability of globally-penetrant and peripherally-restricted FAAH inhibitors (GFI & PFI, respectively) to alter distribution of ABX-002 and ABX-002A was assessed.
Table 5 depicts the inhibition of active metabolite (LL-650177 or PF-044578454) in AUC in the plasma, liver, and brain after prodrug (ABX-002) co-dosing. Tissue distribution studies in mice confirm global & peripheral inhibition of FAAH.

[1] = target: T2, recombinant human FAAH (rhFAAH) (Homo sapiens, UniProt O00519); test: FAAH substrate evaluation: formation of acid metabolite; type: biochemical; conditions: 0.5 ng/μL rhFAAH, 1 μM test compound, room temperature, pH 8.0, 0-60 minutes
T2 construct: purchased Cayman Chemical (Ann Arbor, MI, USA)
T2 sequence (O00519 1-579): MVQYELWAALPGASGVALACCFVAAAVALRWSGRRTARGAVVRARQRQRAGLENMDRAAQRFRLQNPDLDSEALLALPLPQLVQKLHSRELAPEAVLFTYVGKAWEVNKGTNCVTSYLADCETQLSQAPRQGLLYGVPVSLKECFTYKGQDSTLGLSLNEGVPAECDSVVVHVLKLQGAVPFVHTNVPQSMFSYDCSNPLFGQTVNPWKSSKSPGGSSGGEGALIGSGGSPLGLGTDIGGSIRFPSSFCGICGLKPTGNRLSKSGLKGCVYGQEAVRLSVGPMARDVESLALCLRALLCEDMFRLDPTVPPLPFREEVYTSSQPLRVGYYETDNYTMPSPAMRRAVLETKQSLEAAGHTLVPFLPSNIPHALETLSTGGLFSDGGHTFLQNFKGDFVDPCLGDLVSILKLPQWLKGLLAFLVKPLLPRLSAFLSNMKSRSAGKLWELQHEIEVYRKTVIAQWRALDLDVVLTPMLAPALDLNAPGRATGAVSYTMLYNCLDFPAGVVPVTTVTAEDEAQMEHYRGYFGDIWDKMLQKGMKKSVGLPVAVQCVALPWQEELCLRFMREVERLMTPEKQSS
Procedure: Purified recombinant human FAAH (rhFAAH) was purchased from Cayman Chemical (Ann Arbor, MI, USA). The total volume for each incubation was 400 μL containing a final 0.5 ng/μL rhFAAH, 1 μM test compound, 1.25% ethanol or 1 μM PF-3845 (FAAH inhibitor), and 0.1% bovine serum albumin in Tris-EDTA buffer at pH 8.0). The positive control was LL-341001. The incubation was conducted at the room temperature. At 0, 5, 15, 30 and 60 minutes, an aliquot of 30 μL reaction mixtures was removed and mixed with 300 μL acetonitrile containing 5 ng/mL terfenadine and 10 ng/mL tolbutamide as internal standards to quench the reaction. The resulting mixture was centrifuged at 4000 rpm, 4° C. for 15 minutes, and 100 μL supernatant was ready for LC-MS/MS analysis to measure the formation of acid metabolite.
Acquity Ultra Performance LC system from Waters was used for sample analysis. The chromatography was performed on a reverse phase Kinetex 2.6 μm C18 column, 2.1×30 mm, 100 Å. The mobile phase A comprised of 0.1% formic acid in water and mobile phase B comprised of 0.1% formic acid in acetonitrile with a 2-min run time at the flow rate of 0.8 mL/min for the acid metabolite from positive control or a 1.5 min run time at the flow rate of 0.9 mL/min for the acid metabolite of test compounds. The mass spectrometer (API-5500 and API Q Trap 4000 Applied Biosystems/MDS SCIEX Instruments, Framingham, MA, USA) was operated under ESI positive or negative ion MRM mode.
The formation of acid metabolite was monitored and quantified using one calibration point of 1 μM. The observed rate constant (ke) for the acid metabolite formation was calculated by plotting the metabolite concentration versus time of incubation with the slope being ke and is shown in Table 1.

[2] = tested on: T3-responsive target genes; test: expression of T3-responsive target genes in brain, rat cuprizone model; type: in vivo; conditions: 21 day repeat administration; LL-341070 30 or 100 μg/kg, T3 300 μg/kg; Nanostring
[3] = tissue distribution (TD) assay in mouse, brain and plasma; type: in vivo, male C57BL/6 mouse
[4] = tested on: T3-responsive target genes; test: expression of T3-responsive target genes in brain, single PO administration; type: in vivo, male C57BL/6 mouse; conditions: LL-341070 about 0.1 to about 300 μg/kg, T3 about 300 μg/kg
recombinant human FAAH = target: T3, recombinant human FAAH (Homo sapiens, UniProt O00519); test: FAAH inhibition, apparent IC50 with AMC substrate; type: biochemical; conditions: 30 min preincubation with recombinant human FAAH and AMC; read-out: Apparent IC50s
T3 sequence (O00519 1-579): T2 sequence (O00519 1-579)

[5] = after prodrug (ABX-002) co-dosing, mice

Compound | ke (observed rate constant for the acid metabolite formation) [1] | other results
CNC(=O)COc1cc(Cl)c(Cc2ccc(O)c(C(C)C)c2)c(Cl)c1 [Compound 1] | A (A = ke is more than or equal to 0.1) | prodrug levels in plasma, liver and brain with FAAH inhibition (FAAH; co-dosing with PFI or GFI, mice): did not change or slightly increased
CNC(=O)COc1cc(Cl)c(Cc2ccc(O)c(C(C)C)c2F)c(Cl)c1 [Compound 31] | A (A = ke is more than or equal to 0.1) | expression of T3-responsive genes in brain [2]: expression increase was confirmed; AUC ([3]; male, C57BL/6, mouse, plasma, po, 100 ug/kg): 18.8 ng·h/mL; Brain AUC ([3]; single PO 100 μg/kg, male C57BL/6 mouse, AUC 0-24 hr): 10.9 ng·h/mL; expression of Hr, Dio3, Klf9 in brain [4]: increases expression of Hr, Dio3, Klf9
CC#CCNC(=O)COc1cc(Cl)c(Cc2ccc(O)c(C(C)C)c2)c(Cl)c1 [Compound 106] | B (B = ke is less than 0.1 and more than 0) | –
CC#CCN(C)C(=O)COc1cc(Cl)c(Cc2ccc(O)c(C(C)C)c2)c(Cl)c1 [Compound 107] | B (B = ke is less than 0.1 and more than 0) | –
CC(C)c1cc(Cc2c(Cl)cc(OCC(=O)N(C)N(C)C)cc2Cl)ccc1O [Compound 108] | B (B = ke is less than 0.1 and more than 0) | –
CC(C)c1c(O)ccc(Cc2c(Cl)cc(OCC(=O)Nc3cncnc3)cc2Cl)c1F [Compound 109] | A (A = ke is more than or equal to 0.1) | –
CC(C)c1c(O)ccc(Cc2c(Cl)cc(OCC(=O)Nc3ccncn3)cc2Cl)c1F [Compound 110] | A (A = ke is more than or equal to 0.1) | –
CC(C)c1cc(Cc2c(Cl)cc(OCC(=O)N[C@@H]3C[C@@H]3F)cc2Cl)ccc1O [Compound 111] | A (A = ke is more than or equal to 0.1) | –
CC(C)c1cc(Cc2c(Cl)cc(OCC(=O)NCCCF)cc2Cl)ccc1O [Compound 112] | A (A = ke is more than or equal to 0.1) | –
COc1ccc(NC(=O)COc2cc(Cl)c(Cc3ccc(O)c(C(C)C)c3)c(Cl)c2)nn1 [Compound 113] | A (A = ke is more than or equal to 0.1) | –
CC(C)c1cc(Cc2c(Cl)cc(OCC(=O)Nc3cccnc3)cc2Cl)ccc1O [Compound 114] | A (A = ke is more than or equal to 0.1) | –
CC(C)c1cc(Cc2c(Cl)cc(OCC(=O)Nc3ccnnc3)cc2Cl)ccc1O [Compound 116] | A (A = ke is more than or equal to 0.1) | –
CC(C)c1cc(Cc2c(Cl)cc(OCC(=O)N3CCCC3)cc2Cl)ccc1O [Compound 117] | B (B = ke is less than 0.1 and more than 0) | –
CC(C)c1cc(Cc2c(Cl)cc(OCC(=O)N3CCC3)cc2Cl)ccc1O [Compound 118] | B (B = ke is less than 0.1 and more than 0) | –
CC(C)c1cc(Cc2c(Cl)cc(OCC(=O)NC(C)(C)C)cc2Cl)ccc1O [Compound 119] | C (C = ke is 0) | –
CC(C)CN(C)C(=O)COc1cc(Cl)c(Cc2ccc(O)c(C(C)C)c2)c(Cl)c1 [Compound 120] | C (C = ke is 0) | –

Compound | ke (observed rate constant for the acid metabolite formation) [1] | other results
CC(C)CNC(=O)COc1cc(Cl)c(Cc2ccc(O)c(C(C)C)c2)c(Cl)c1 [Compound 121] | C (C = ke is 0) | –
CC(C)c1cc(Cc2c(Cl)cc(OCC(=O)N(C)C(C)C)cc2Cl)ccc1O [Compound 122] | B (B = ke is less than 0.1 and more than 0) | –
CC(C)c1cc(Cc2c(Cl)cc(OCC(=O)N(C)CCO)cc2Cl)ccc1O [Compound 123] | B (B = ke is less than 0.1 and more than 0) | –
CNN(C)C(=O)COc1cc(Cl)c(Cc2ccc(O)c(C(C)C)c2)c(Cl)c1 [Compound 124] | B (B = ke is less than 0.1 and more than 0) | –
CC(C)c1cc(Cc2c(Cl)cc(OCC(=O)N(C)CCF)cc2Cl)ccc1O [Compound 125] | B (B = ke is less than 0.1 and more than 0) | –
CC(C)NC(=O)COc1cc(Cl)c(Cc2ccc(O)c(C(C)C)c2)c(Cl)c1 [Compound 126] | A (A = ke is more than or equal to 0.1) | –
CC(C)c1cc(Cc2c(Cl)cc(OCC(=O)NC3CCC3)cc2Cl)ccc1O [Compound 127] | B (B = ke is less than 0.1 and more than 0) | –
C=CCN(C)C(=O)COc1cc(Cl)c(Cc2ccc(O)c(C(C)C)c2)c(Cl)c1 [Compound 128] | B (B = ke is less than 0.1 and more than 0) | –
CCCN(C)C(=O)COc1cc(Cl)c(Cc2ccc(O)c(C(C)C)c2)c(Cl)c1 [Compound 129] | B (B = ke is less than 0.1 and more than 0) | –
CCN(C)C(=O)COc1cc(Cl)c(Cc2ccc(O)c(C(C)C)c2)c(Cl)c1 [Compound 130] | B (B = ke is less than 0.1 and more than 0) | –
CC(C)c1cc(Cc2c(Cl)cc(OCC(=O)N(C)CC(F)(F)F)cc2Cl)ccc1O [Compound 131] | B (B = ke is less than 0.1 and more than 0) | –
CC(C)c1cc(Cc2c(Cl)cc(OCC(=O)N(C)CC(F)F)cc2Cl)ccc1O [Compound 132] | B (B = ke is less than 0.1 and more than 0) | –
CC(C)c1cc(Cc2c(Cl)cc(OCC(=O)N3CCOCC3)cc2Cl)ccc1O [Compound 133] | A (A = ke is more than or equal to 0.1) | –
O=C(Nc1cccnn1)N1CCC(=Cc2cccc(Oc3ccc(C(F)(F)F)cn3)c2)CC1 [PF-04457845] | – | inhibition of active metabolite AUC, Brain (FAAH; [5]): 83%; inhibition of active metabolite AUC, Liver (FAAH; [5]): 94%; inhibition of active metabolite AUC, Plasma (FAAH; [5]): 94%; Distribution (FAAH): Global; IC50 (recombinant human FAAH): 3 nM
NC(=O)c1cccc(-c2cc(OC(=O)NC3CCCCC3)ccc2O)c1 [URB937] | – | Distribution (FAAH): Peripheral; IC50 (recombinant human FAAH): 69 nM
